Measurements published in US20240335385A1, “IONIZABLE AMINE LIPIDS AND LIPID NANOPARTICLES” (Beam Therapeutics Inc., priority 2021, published 2024).

What was measured:
[1] = LNP hydrodynamic diameter and polydispersity index by dynamic light scattering (DLS); format: physicochemical; settings: LNP of 47.5% Ionizable Lipid:40% cholesterol:2.5% PEG-2000 DMG:10% DPSC, N/P ratio 4-8
Description: (§1) LNPs were prepared with 47.5% Ionizable Lipid (e.g., a compound provided herein):40% cholesterol:2.5% PEG-2000 DMG:10% DPSC and an N/P ratio range of 4-8. LNPs were formed by microfluidic mixing of the lipid and NA solutions using a Precision Nanosystems NanoAssemblr Spark or Benchtop series Instruments, according to the manufacturer's protocol. A ratio of aqueous to organic solvent of approximately 2:1 or 3:1 was maintained during mixing using differential flow rates. After mixing, LNPs were collected, diluted in phosphate buffer saline (PBS) or Tris-buffered saline (TBS) (approximately 1:1 v/v). Further buffer exchange was conducted using dialysis in PBS or TBS at 4° C. for 4 to 24 hours against a 20 kDa filter. After this initial dialysis, each individual LNP preparation was characterized via dynamic light scattering (DLS) to measure the size (e.g., diameter) and polydispersity. LNPs falling within specific diameter and polydispersity ranges were pooled, and further dialyzed against PBS or TBS at 4° C. for 1 to 4 hours against a 100 kDa dialysis cassette. After the second dialysis, LNPs were sterile filtered using 0.22 μm filter and stored at 4° C. for further use.
LNP hydrodynamic diameter and polydispersity index (PDI) were measured using high throughput dynamic light scattering (DLS) (Stunner, Unchained Labs). LNPs were diluted 1×TBS or PBS to an appropriate concentration and analyzed.

ALAS1 target site = experiment: Base editing in liver by LNP carrying adenine base editor mRNA and sgRNA, targeted deep sequencing; format: in vivo; settings: Balb/C mice, tail vein, 0.15 mg/kg total RNA (ABE mRNA:sgRNA 1:1), four to six days post-dose
Description: Exemplary LNP preparations were selected to determine each preparation's ability to perform base editing in a Balb/C mouse model as described herein.
Lipid nanoparticle components were dissolved in 100% ethanol at specified lipid component molar ratios. mRNA encoding an adenine base editor and a chemically-modified sgRNA was dissolved at a mass ratio of 1:1 in 50 mM citrate, pH 4.0, resulting in a concentration of NA cargo of approximately 0.1 mg/mL.
LNP preparations were formulated with molar ratios of 47.5% Ionizable Lipid:40% Cholesterol:2.5% PEG2000-DMG:10% DSPC total lipid to NA mass ratio of 6 to 12. […]
A 3:1 ratio of aqueous to organic solvent was maintained during mixing using differential flow rates. […] After this initial dialysis, each individual LNP preparation was characterized via dynamic light scattering (DLS) to measure size and polydispersity. pKa of a subpopulation of LNP preparations was measured via TNS assay. […]
Age-matched mice were also used to administer vehicle (1×TBS) via tail vein injection as a control. […] Base editing is determined by performing targeted deep sequencing analysis at the ALAS1 target site using extracted genomic DNA. […] Library size and concentration was confirmed by Fragment Analyzer (Agilent) and analyzed for […] using an Illumina HiSeq.

[2] = RNA encapsulation efficiency of LNPs by Ribogreen assay; format: physicochemical; settings: LNP of 47.5% Ionizable Lipid:40% cholesterol:2.5% PEG-2000 DMG:10% DPSC, N/P ratio 4-8
Description: as §1
RNA concentration and encapsulation efficiency were determined by Ribogreen assay (BioTek Synergy LX plate reader).

Row | Mean Diameter (nm) [1] | Mean PDI [1] | Mean Encapsulation Efficiency (%) [2] | Compound | base editing observed in liver (ALAS1 target site)
1 | 80.3 nm | 0.11 | 84.3% | CC/C=C\CCCCOC(CCC(=O)OCCCCC(CCCCOC(=O)CCCCCCC/C=C\C/C=C\CCCCC)OC(=O)OCC1CCCN(CC)C1)OCCCC/C=C\CC (centres unmarked) [Example 7-41, 9-((4,4-bis(((Z)-oct-5-en-1-yl)oxy)butanoyl)oxy)-5-((((1-ethylpiperidin-3-yl)methoxy)carbonyl)oxy)nonyl (9Z,12Z)-octadeca-9,12-dienoate] | 1.7%
2 | 90.0 nm | 0.11 | 86.4% | CC/C=C\CCCCOC(CCC(=O)OCCCC(CCCOC(=O)CCCCCCC/C=C\C/C=C\CCCCC)OC(=O)OCC1CCCN(CC)C1)OCCCC/C=C\CC (centres unmarked) [Example 7-21, 7-((4,4-bis(((Z)-oct-5-en-1-yl)oxy)butanoyl)oxy)-4-((((1-ethylpiperidin-3-yl)methoxy)carbonyl)oxy)heptyl (9Z,12Z)-octadeca-9,12-dienoate] | 34.1%
